Measured values as given in ChEMBL document CHEMBL1201862, “PubChem BioAssay data set” (2004).
The source made the active and inactive calls.

Columns and labels:
P388/ADR = experiment: cells; type: functional; conditions: Mus musculus
SN12K1 = experiment: cells; type: functional; conditions: Homo sapiens
P388 = experiment: cells; type: functional; conditions: Mus musculus
[1] = target: DNA dC->dU-editing enzyme APOBEC-3A (Homo sapiens, UniProt P31941); experiment: Dose Response confirmation of small molecule APOBEC3A DNA Deaminase Inhibitors via a fluorescence-based single-stranded DNA deaminase assay. [Related pubchem assays (depositor defined):AID493011, AID493024]; type: functional
DNA dC->dU-editing enzyme APOBEC-3A, sequence (P31941 whole entry): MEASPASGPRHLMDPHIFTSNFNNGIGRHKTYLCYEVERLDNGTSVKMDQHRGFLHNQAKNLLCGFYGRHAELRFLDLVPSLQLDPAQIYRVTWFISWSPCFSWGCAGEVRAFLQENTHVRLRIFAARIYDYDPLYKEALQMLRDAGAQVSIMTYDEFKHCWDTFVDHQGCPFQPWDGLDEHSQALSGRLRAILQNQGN

[2] = target: DNA dC->dU-editing enzyme APOBEC-3G (Homo sapiens, UniProt Q9HC16); type: functional;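 further: Dose-response counterscreen measuring inhibition of APOBEC3G DNA deaminase activity, run while confirming APOBEC3A inhibitors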
DNA dC->dU-editing enzyme APOBEC-3G, sequence (Q9HC16 whole entry): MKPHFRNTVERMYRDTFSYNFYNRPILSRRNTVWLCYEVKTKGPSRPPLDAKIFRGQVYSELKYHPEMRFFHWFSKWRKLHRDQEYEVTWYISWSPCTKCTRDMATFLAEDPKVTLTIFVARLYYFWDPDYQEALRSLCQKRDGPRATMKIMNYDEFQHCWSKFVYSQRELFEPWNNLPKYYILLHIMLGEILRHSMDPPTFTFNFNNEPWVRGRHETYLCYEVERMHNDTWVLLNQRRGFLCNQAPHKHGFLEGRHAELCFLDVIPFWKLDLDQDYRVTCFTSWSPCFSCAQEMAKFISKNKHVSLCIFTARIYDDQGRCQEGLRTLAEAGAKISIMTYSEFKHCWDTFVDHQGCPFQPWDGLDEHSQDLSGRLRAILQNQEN

BJ [3] = experiment: BJ-TERT-LT-ST fibroblast viability loss – cell-based, RAS-independent, luminescence, dose response (AID 1935); type: functional; conditions: Homo sapiens;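 further: BJ fibroblasts immortalized with TERT plus LT and ST oncogenes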
[4] = DRD fibroblast viability loss – cell-based, non-viral oncogenic, luminescence, dose response (AID 1934); type: functional; conditions: Homo sapiens
BJ [5] = experiment: cells; type: functional, cell-based; conditions: Homo sapiens
BJ [6] = experiment: BJ-TERT fibroblast viability loss – cell-based, RAS-independent, luminescence, dose response (AID 1933); type: functional; conditions: Homo sapiens
Streptococcus = experiment: GAS UMAA2166 growth inhibition – luminescence, BacTiterGlo, counter-screen for streptokinase expression inhibitor project, dose response (AID 1915); type: functional, organism-based;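 further: potency for reduction of bacterial viability or growth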
Vero = experiment: cells; type: functional; conditions: Chlorocebus sabaeus
[7] = luciferase reporter signal suppression in cells – H4 neuroglioma cells, luminescence, dose response (AID 1990); type: functional, cell-based
[8] = tested on: Streptococcus sp. 'group A'; experiment: Streptococcus pyogenes SK(-)GAS viability under kanamycin – luminescence, BacTiterGlo, confirmation, counter-screen for streptokinase expression inhibitor project, dose response (AID 1900); type: functional, organism-based
[9] = alpha-synuclein stem-loop luciferase translation blockers – H4 neuroglioma cells, luminescence, confirmation (AID 1988); type: functional, cell-based
[10] = Luminescence Cell-Based Dose Response HTS to Identify Inhibitors of 5'UTR Stem-Loop Driven Prion Protein mRNA Translation in H4 Neuroglioblastoma Cells. [Related pubchem assays: 1827 (Project Summary), 1813 (Primary HTS)]; type: functional
[11] = Luminescence Cell-Based Dose Retest to Confirm Inhibitors of Cancer Stem Cells. [Related pubchem assays (depositor defined):AID2717, AID2721]; type: functional; conditions: Homo sapiens
[12] = target: T1, Zinc finger protein mex-5 (Caenorhabditis elegans, UniProt Q9XUB2); experiment: potency of MEX-5 RNA-binding blockers – biochemical, C. elegans, fluorescence polarization, dose response (AID 1960)
T1 sequence (Q9XUB2 whole entry): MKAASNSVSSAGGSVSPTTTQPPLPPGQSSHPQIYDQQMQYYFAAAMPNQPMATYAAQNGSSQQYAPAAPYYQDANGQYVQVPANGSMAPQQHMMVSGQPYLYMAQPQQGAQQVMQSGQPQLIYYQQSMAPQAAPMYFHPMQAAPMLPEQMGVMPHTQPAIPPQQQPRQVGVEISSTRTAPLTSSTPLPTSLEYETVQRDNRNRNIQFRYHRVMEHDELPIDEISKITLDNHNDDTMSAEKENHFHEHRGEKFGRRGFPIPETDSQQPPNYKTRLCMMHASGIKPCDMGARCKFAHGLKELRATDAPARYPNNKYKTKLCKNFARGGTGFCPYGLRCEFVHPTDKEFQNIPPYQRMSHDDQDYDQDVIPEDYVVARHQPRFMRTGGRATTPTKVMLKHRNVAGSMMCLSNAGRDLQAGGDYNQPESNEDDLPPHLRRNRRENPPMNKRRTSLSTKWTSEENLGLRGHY

[13] = target: T2, RNA-binding protein pos-1 (Caenorhabditis elegans, UniProt G5EF15); experiment: disruptors of C. elegans POS-1 RNA interaction – biochemical, fluorescence polarization, dose response (AID 1964);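 further: purified POS-1 fused to maltose binding protein made in E. coli; potency of compounds blocking POS-1 binding to fluorescent RNA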
T2 sequence (G5EF15 whole entry): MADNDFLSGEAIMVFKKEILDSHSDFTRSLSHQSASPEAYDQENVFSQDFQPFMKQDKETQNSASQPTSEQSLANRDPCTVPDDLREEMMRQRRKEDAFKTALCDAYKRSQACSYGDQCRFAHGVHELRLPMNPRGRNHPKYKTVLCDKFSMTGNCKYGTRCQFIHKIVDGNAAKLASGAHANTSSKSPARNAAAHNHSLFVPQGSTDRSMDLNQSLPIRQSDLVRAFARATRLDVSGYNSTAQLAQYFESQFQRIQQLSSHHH

[14] = target: T3, Probable nicotinate-nucleotide adenylyltransferase (Staphylococcus aureus (strain N315), UniProt P65502); type: functional, Staphylococcus aureus subsp. aureus N315;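 on IC50 Mean: confirmatory dose-response retesting of NadD inhibitor hits first found in an ultra-high-throughput screen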
T3 sequence (P65502 whole entry): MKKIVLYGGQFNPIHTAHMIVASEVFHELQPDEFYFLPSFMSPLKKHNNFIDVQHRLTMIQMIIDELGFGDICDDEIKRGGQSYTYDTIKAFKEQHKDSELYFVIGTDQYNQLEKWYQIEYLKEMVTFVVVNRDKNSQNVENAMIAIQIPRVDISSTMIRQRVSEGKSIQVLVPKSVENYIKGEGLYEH

[15] = target: T3, Probable nicotinate-nucleotide adenylyltransferase; type: functional, Staphylococcus aureus subsp. aureus N315; conditions: read-out: IC50_Mean
[16] = target: T4, Heat shock factor protein 1 (Mus musculus, UniProt P38532); experiment: enhancement of HSF1-driven luciferase signal – cell-based, NIH3T3, luminescence, dose retest, confirmation (AID 435004); type: functional;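 further: stress induced by proteasome inhibitor MG132 added 30 min after compound; luciferase reporter driven by HSF1 response element in NIH3T3 cells; actives raise luminescence as potentiators of the MG132 stress response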
T4 sequence (P38532 whole entry): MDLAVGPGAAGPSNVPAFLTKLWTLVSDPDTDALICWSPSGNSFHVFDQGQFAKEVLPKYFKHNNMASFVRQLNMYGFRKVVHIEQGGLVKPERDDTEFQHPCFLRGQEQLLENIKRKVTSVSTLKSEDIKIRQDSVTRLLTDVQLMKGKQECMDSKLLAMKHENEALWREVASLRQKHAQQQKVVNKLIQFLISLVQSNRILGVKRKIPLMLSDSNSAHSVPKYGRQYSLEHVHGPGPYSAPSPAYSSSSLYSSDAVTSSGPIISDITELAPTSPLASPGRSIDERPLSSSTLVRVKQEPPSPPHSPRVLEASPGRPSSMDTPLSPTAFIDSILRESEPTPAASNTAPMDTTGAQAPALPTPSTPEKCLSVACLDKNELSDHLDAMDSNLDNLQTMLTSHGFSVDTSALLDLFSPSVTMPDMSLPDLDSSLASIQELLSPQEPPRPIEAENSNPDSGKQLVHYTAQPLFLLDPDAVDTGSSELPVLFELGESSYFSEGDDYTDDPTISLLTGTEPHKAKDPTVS

[17] = viability of HCT116 lacking mutant beta-catenin – cell-based, human colon tumor, dose response (AID 1045); type: functional;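 further: HCT116 colon tumor cells with beta catenin knocked out; cells exposed to compound for 60 hours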
[18] = viability of PTEN-deleted HCT116 cells – cell-based, HCT116 PTEN knockout, dose response (AID 1047); type: functional;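 further: HCT116 colon tumor cells with PTEN knocked out; cells exposed to compound for 60 hours before readout; potency for loss of cell viability measured by luminescence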
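Wherever AC50 is given: cells exposed to compound for roughly 70 hours or longer before luminescence read.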

For `CCCCCCCCCC[S+]([O-])CC(CO)NC(=O)/C=C/c1c(C)nc(O)nc1O` (configuration not stated), the GI50 (P388/ADR) was 2.25 µM (inactive), the GI50 (SN12K1) was 0.612 µM (active) and the GI50 (P388) was 0.0443 µM (active).

For `CCc1n(CC(O)COCc2ccccc2)c2ccccc2[n+]1C` (configuration not stated), the IC50 [1] was 2.36 µM (active) and the IC50 [2] was 3.14 µM (active).

In the case of `Cc1cc2ccccn2c1C(=O)c1ccc(Cl)c([N+](=O)[O-])c1`, the EC50 (BJ [3]) is reported as > 150 µM (inconclusive), the EC50 [4] is reported as > 150 µM (not active) and the EC50 (BJ [5]) is reported as > 150 µM (not active). The EC50 (BJ [6]) was > 150 µM (not active).

In the case of `CC(C)(C)c1ccc(C(=O)NNC(=S)NC(=O)c2cccnc2)cc1`, the EC50 (Streptococcus) is reported as 2.42 µM (active), the CC50 (Vero) is reported as > 25 µM (active) and the EC50 [7] is reported as 14.4 µM (active). The EC50 [8] was 0.47 µM (active), the EC50 [9] was 10.8 µM (active) and the EC50 [10] was 18.2 µM (active).

For `CCSc1nnc(NC(=O)NC(CC)(C(F)(F)F)C(F)(F)F)s1`, the CC50 (Vero) was 16.5 µM (active) and the AC50 [11] was 7.03 µM (active).

With `COCCNC1=N[C@@H](c2ccc(Br)cc2)C(C(=O)OC)=C(C)N1Cc1ccccc1` the IC50 [1] was 12 µM (active) and the IC50 [2] was 15.1 µM (active).

For `Cc1cc(C=C2C(=O)NC(=O)NC2=O)c(C)n1-c1cccnc1`, the EC50 [12] was 36.7 µM (inconclusive) and the EC50 [13] was 64.3 µM (active).

In the case of `Cc1cccc(-n2nc3c(c2NC(=O)c2ccc(Br)o2)CSC3)c1`, the IC50 [14] is reported as 4.58 µM (active) and the IC50 [15] is reported as 17.5 µM (active).

In the case of `NS(=O)(=O)c1cc(C(=O)OCC(=O)Nc2ccc3[nH]c(O)nc3c2)ccc1Cl`, the IC50 [1] is reported as 10.4 µM (active) and the IC50 [2] is reported as 8.99 µM (active).

In the case of `CC1(C)CC(=O)C2=C(C1)N1C(=C(C#N)C2c2ccc(Cl)cc2)N=C(N)c2ccccc21` (configuration not stated), the CC50 (Vero) is reported as > 25 µM (active) and the EC50 [16] is reported as > 260 µM (inactive).

In the case of `N#CC1=C(N)OC2=C(CC/C2=C\c2ccccc2Cl)C1c1ccccc1Cl` (configuration not stated), the CC50 (Vero) is reported as 22 µM (active), the EC50 [17] is reported as 18.3 µM (active) and the EC50 [18] is reported as 21.1 µM (active).

For `O=S(=O)(NC(=Nc1ccc(Cl)c(S(=O)(=O)Nc2ccccc2Cl)c1)c1ccc(F)cc1)c1ccccc1`, the IC50 [14] was 13.7 µM (active) and the IC50 [15] was 80 µM (inactive).
